The results in this text go back to paper PMC9841523 (Journal of Medicinal Chemistry, 2022).

For one series, the system named is Wnk1, Wnk2, Wnk3. Put plainly: KiNativ kinase panel. In kind it is cell-based, human. As to conditions: 1 μM; MCF-7 Cells; Lys2; DLKCDNIFITGPTGSVK
The next series relates to ROCK1, ROCK2. Nature of the series: KiNativ kinase panel. In kind it is cell-based, human. As to conditions: 1 μM; MCF-7 Cells; Lys1; VYAMKLLSK
The next series addresses hERG potassium channel (Homo sapiens, UniProt Q12809). Nature of the series: Eurofins Safety Screen 44. As to conditions: probe [3H] Dofetilide.
Series [1] has as its target T1, N neuronal α4β2 (h) (agonist radioligand) (Homo sapiens, UniProt P17787+P43681).
T1 construct: purchased ActivX Biosciences (KiNativ)
Nature of the series: Eurofins Safety Screen 44. As to conditions: read-out: % Inhibition of Control Values. In kind it is binding.

Series [2] addresses T2, M3(h) (antagonist radioligand) (Homo sapiens, UniProt P20309).
T2 construct: purchased ActivX Biosciences (KiNativ)
Put plainly: Eurofins Safety Screen 44. In kind it is binding. As to conditions: read-out: % Inhibition of Control Values.

Another series has as its target T3, acetylcholinesterase (h) (Homo sapiens, UniProt P22303).
T3 construct: Eurofins (ran the panel)
Put plainly: Eurofins Safety Screen 44. As to conditions: read-out: % Inhibition of Control Values. In kind it is biochemical.

A further series has as its target T4, Lck kinase (h) (Homo sapiens, UniProt P06239).
T4 construct: Eurofins (ran the panel)
Put plainly: Eurofins Safety Screen 44. In kind it is biochemical. As to conditions: read-out: % Inhibition of Control Values.

For series [3], the target named is T5, 5-HT1A(h) (agonist radioligand) (Homo sapiens, UniProt P08908).
T5 construct: purchased ActivX Biosciences (KiNativ)
T5 sequence (P08908 whole entry): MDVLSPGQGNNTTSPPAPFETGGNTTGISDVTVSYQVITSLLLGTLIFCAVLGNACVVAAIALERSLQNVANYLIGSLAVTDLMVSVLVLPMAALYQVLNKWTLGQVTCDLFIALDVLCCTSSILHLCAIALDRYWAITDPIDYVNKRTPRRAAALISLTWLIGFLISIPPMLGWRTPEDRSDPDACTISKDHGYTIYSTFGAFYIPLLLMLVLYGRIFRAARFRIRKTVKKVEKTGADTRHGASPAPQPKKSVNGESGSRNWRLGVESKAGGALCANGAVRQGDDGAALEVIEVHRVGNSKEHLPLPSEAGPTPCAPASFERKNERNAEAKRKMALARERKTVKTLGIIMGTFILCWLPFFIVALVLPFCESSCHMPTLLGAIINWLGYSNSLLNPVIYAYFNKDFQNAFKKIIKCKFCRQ
Nature of the series: Eurofins Safety Screen 44. As to conditions: read-out: % Inhibition of Control Values. In kind it is binding.

Series [4] relates to NMDA (antagonist radioligand). Put plainly: Eurofins Safety Screen 44. In kind it is binding. As to conditions: 10 µM.
In series [5] the target is T6, CCK1 (CCKA) (h) (agonist radioligand) (Homo sapiens, UniProt P32238).
T6 construct: purchased ActivX Biosciences (KiNativ)
T6 sequence (P32238 whole entry): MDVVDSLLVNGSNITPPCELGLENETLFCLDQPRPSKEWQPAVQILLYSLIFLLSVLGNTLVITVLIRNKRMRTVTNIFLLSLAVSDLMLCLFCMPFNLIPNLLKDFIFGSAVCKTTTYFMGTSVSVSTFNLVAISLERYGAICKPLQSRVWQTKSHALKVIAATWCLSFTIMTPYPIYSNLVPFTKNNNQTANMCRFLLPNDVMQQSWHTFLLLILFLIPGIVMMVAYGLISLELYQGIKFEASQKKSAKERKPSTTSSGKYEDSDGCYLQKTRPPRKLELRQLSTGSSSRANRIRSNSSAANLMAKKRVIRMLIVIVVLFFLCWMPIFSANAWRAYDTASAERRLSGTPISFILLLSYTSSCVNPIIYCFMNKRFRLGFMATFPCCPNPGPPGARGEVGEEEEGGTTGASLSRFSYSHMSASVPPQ
Nature of the series: Eurofins Safety Screen 44. In kind it is binding. As to conditions: read-out: % Inhibition of Control Values.

Series [6] concerns the target T7, 5-HT3(h) (antagonist radioligand) (Homo sapiens, UniProt P46098).
T7 construct: purchased ActivX Biosciences (KiNativ)
Put plainly: Eurofins Safety Screen 44. As to conditions: read-out: % Inhibition of Control Values. In kind it is binding.

The target of series [7] is T8, MAO-A (antagonist radioligand) (Rattus norvegicus, UniProt P21396).
T8 construct: purchased ActivX Biosciences (KiNativ)
Nature of the series: Eurofins Safety Screen 44. In kind it is binding. As to conditions: read-out: % Inhibition of Control Values.

Series [8] has as its target T9, α2A(h) (antagonist radioligand) (Homo sapiens, UniProt P08913).
T9 construct: purchased ActivX Biosciences (KiNativ)
Nature of the series: Eurofins Safety Screen 44. As to conditions: read-out: % Inhibition of Control Values. In kind it is binding.

Series [9] deals with T10, D2S(h) (agonist radioligand) (Homo sapiens, UniProt P14416).
T10 construct: purchased ActivX Biosciences (KiNativ)
T10 sequence (P14416 1-414 isoform P14416-2): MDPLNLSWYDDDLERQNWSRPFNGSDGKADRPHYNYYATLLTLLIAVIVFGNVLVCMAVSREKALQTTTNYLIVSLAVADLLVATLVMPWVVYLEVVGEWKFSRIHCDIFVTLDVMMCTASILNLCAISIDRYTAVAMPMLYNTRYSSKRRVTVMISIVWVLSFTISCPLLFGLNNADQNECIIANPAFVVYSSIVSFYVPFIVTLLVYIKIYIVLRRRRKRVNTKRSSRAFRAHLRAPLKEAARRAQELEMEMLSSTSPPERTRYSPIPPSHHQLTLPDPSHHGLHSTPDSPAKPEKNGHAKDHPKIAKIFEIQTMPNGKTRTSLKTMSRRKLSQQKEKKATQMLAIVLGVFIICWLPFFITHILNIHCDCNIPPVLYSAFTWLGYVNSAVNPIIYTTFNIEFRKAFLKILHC
Put plainly: Eurofins Safety Screen 44. In kind it is binding. As to conditions: read-out: % Inhibition of Control Values.

Series [10] addresses T11, H2(h) (antagonist radioligand) (Homo sapiens, UniProt P25021).
T11 construct: purchased ActivX Biosciences (KiNativ)
Nature of the series: Eurofins Safety Screen 44. In kind it is binding. As to conditions: read-out: % Inhibition of Control Values.

The target in series [11] is T12, M2 (h) (antagonist radioligand) (Homo sapiens, UniProt P08172).
T12 construct: purchased ActivX Biosciences (KiNativ)
T12 sequence (P08172 whole entry): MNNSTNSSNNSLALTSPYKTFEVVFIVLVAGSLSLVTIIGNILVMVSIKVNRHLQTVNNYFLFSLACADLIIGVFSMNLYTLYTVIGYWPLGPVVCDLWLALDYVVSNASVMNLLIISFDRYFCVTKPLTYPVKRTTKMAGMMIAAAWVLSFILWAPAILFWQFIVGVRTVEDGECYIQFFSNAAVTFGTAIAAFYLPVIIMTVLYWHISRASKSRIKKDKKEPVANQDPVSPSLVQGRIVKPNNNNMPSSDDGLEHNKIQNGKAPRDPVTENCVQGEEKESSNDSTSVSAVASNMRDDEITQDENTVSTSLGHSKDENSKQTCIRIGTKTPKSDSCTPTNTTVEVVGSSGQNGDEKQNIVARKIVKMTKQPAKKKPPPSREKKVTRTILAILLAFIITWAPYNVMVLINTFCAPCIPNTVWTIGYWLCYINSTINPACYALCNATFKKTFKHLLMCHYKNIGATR
Nature of the series: Eurofins Safety Screen 44. In kind it is binding. As to conditions: read-out: % Inhibition of Control Values.

Series [12] deals with T13, CB1(h) (agonist radioligand) (Homo sapiens, UniProt P21554).
T13 construct: purchased ActivX Biosciences (KiNativ)
T13 sequence (P21554 whole entry): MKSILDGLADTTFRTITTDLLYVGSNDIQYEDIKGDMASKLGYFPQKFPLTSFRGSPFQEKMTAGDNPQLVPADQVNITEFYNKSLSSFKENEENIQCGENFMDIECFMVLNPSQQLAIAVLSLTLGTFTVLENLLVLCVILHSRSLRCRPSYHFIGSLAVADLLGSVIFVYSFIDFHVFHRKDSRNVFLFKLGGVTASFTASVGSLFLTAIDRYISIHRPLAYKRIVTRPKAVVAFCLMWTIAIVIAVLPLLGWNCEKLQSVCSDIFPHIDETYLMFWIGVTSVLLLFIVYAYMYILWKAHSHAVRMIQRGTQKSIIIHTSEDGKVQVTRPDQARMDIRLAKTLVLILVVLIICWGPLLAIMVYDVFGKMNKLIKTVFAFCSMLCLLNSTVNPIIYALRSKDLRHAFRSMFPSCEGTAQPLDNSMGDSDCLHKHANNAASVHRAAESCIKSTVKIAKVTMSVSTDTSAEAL
Nature of the series: Eurofins Safety Screen 44. In kind it is binding. As to conditions: read-out: % Inhibition of Control Values.

Series [13] has as its target T14, μ (MOP) (h) (agonist radioligand) (Homo sapiens, UniProt P35372).
T14 construct: purchased ActivX Biosciences (KiNativ)
Nature of the series: Eurofins Safety Screen 44. In kind it is binding. As to conditions: read-out: % Inhibition of Control Values.

For series [14], the target named is T15, 5-HT2B(h) (agonist radioligand) (Homo sapiens, UniProt P41595).
T15 construct: purchased ActivX Biosciences (KiNativ)
Nature of the series: Eurofins Safety Screen 44. As to conditions: read-out: % Inhibition of Control Values. In kind it is binding.

Series [15] deals with T16, δ (DOP) (h) (agonist radioligand) (Homo sapiens, UniProt P41143).
T16 construct: purchased ActivX Biosciences (KiNativ)
Put plainly: Eurofins Safety Screen 44. In kind it is binding. As to conditions: read-out: % Inhibition of Control Values.

For series [16], the target named is T17, kappa (h) (KOP) (agonist radioligand) (Homo sapiens, UniProt P41145).
T17 construct: purchased ActivX Biosciences (KiNativ)
Put plainly: Eurofins Safety Screen 44. In kind it is binding. As to conditions: read-out: % Inhibition of Control Values.

The subject of series [17] is AKT S473 phosphorylation (mTORC2). Nature of the series: AlphaLISA/MSD analysis of AKT phosphorylation in MDA-MB-468 cells. In kind it is cell-based. As to conditions: Homo sapiens, MDA-MB-468, read-out: pAKT IC50. How it is done:
Cell culture and reagents. Cells were obtained from ATCC, grown in appropriate medium supplemented with 10% fetal bovine serum and 1% penicillin/streptomycin and maintained at 37 °C in a humidified incubator at 5% CO 2.
AlphaLISA and MesoScale Discovery (MSD) analysis of 4EBP1, S6K and AKT phosphorylation. mTOR substrate phosphorylation in MDA-MB-468 cells was assayed using AlphaLISA SureFire Ultra kits for p4EBP1 Thr37/46, p-P70S6K Thr389 and p-AKT1/2/3 Ser473 (PerkinElmer), and MSD Multi-Array Assay Systems for Phospho-4EBP1 (Thr37/46) and Phospho-AKT (Ser473) (MSD). Cells were seeded at 25,000 cells per well and exposed the next day to serial three-fold dilutions of compounds in complete medium with 0.1% dimethylsulfoxide (DMSO). After indicated incubation times, cells were lysed and AlphaLISA or MSD performed according to the manufacturers’ protocols. Samples were read using an EnVision Multilabel Plate Reader (PerkinElmer) using standard AlphaLISA settings or using an MSD plate reader. Data were plotted as a function of logM [compound] with a sigmoidal concentration response (variable slope) model fitted to the data to estimate the inhibitor half-maximum effective concentration (EC 50) in Prism 7 (GraphPad). Alternatively, results were analyzed as percentage of control in which 0% was set as signal from 1 μM Torin1 and 100% was set as the mean of DMSO wells on each plate, and inhibitor EC 50 was estimated as described
Background: Alpha assays give light when donor and acceptor beads are brought close together.

T9 sequence (P08913 whole entry): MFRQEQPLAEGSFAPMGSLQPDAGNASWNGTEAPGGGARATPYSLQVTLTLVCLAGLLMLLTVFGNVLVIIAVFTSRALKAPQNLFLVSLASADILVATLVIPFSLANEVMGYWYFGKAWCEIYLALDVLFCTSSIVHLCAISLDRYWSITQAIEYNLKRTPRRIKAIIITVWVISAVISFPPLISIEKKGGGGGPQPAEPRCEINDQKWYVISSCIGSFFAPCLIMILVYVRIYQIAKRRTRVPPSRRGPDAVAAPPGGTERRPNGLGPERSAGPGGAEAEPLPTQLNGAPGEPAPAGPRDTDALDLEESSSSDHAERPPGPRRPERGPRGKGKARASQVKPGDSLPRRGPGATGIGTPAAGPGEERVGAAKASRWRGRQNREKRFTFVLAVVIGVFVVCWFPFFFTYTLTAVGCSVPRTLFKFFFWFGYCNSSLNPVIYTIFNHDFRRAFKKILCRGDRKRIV
T3 sequence (P22303 32-614): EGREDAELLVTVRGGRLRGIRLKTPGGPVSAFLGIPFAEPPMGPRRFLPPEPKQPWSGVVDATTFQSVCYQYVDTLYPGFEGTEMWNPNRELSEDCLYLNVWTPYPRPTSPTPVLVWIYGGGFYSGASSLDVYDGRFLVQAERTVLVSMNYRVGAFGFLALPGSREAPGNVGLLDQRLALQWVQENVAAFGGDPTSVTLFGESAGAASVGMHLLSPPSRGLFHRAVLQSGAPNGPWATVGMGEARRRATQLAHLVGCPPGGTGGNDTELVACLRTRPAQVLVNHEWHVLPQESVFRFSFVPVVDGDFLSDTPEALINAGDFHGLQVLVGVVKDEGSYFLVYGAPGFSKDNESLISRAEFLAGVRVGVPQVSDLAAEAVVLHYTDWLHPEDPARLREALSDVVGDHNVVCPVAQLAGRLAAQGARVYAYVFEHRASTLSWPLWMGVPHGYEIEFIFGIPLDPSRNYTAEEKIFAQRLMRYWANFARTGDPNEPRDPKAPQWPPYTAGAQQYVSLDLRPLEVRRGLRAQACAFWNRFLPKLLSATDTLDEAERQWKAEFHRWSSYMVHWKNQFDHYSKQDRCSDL
T2 sequence (P20309 whole entry): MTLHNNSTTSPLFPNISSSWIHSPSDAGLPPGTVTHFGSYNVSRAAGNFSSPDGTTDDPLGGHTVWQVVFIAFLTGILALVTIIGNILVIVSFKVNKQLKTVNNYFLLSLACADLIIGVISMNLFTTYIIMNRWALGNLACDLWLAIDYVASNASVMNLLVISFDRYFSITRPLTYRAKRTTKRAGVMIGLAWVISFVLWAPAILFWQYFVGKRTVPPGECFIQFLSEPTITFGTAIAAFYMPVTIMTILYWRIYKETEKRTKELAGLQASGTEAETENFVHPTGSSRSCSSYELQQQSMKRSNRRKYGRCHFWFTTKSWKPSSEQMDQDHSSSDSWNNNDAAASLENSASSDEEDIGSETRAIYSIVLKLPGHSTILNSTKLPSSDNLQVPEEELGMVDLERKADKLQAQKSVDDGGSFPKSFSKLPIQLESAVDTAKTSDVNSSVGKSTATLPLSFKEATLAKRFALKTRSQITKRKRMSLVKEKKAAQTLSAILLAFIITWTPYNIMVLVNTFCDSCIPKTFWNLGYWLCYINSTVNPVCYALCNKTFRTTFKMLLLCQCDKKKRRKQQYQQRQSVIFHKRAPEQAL
T1 sequence (P43681 29-627 limits assumed): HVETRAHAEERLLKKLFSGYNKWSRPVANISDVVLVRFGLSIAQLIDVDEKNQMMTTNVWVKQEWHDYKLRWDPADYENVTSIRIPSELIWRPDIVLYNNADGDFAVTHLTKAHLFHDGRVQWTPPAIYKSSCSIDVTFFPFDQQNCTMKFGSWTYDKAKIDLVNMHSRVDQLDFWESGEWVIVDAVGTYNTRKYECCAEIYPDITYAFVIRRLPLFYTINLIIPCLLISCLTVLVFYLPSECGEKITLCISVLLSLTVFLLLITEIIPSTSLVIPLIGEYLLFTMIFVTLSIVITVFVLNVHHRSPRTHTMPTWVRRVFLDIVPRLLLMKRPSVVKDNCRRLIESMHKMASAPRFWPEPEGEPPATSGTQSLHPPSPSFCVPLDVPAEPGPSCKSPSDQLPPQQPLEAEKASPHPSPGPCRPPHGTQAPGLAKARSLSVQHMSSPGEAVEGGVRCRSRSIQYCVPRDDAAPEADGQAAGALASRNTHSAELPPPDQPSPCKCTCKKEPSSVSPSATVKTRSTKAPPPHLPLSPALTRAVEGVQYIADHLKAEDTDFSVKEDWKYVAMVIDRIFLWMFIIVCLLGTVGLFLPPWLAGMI
T1 sequence (P17787 26-502): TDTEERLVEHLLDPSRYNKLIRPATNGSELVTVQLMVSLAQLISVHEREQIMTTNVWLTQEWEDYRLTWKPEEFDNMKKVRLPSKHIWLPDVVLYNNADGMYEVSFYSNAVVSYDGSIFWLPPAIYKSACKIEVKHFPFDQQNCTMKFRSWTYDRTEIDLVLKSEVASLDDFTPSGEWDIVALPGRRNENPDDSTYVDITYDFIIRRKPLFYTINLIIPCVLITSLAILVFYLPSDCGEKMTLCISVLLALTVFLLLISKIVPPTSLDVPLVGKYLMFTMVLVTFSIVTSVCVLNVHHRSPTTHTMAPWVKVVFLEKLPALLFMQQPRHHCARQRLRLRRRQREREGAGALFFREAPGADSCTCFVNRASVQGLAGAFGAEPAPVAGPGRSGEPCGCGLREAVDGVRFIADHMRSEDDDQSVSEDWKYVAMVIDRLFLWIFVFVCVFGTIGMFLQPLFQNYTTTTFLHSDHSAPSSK

`CO[C@H]1C[C@@H]2CC[C@@H](C)[C@@](O)(O2)C(=O)C(=O)N2CCCC[C@H]2C(=O)O[C@H]([C@H](C)C[C@@H]2CC[C@@H](OC(=O)NCCOCCOCCOCCOCCOCCOCCOCCOCCC(=O)NCCS(=O)(=O)c3ccc(C(=O)N4CCOc5ccc(-c6ccc(N)nc6)cc5C4)c(C)c3F)[C@H](OC)C2)C[C@@H](O)[C@H](C)/C=C(\C)[C@@H](O)[C@@H](OC)C(=O)[C@H](C)C[C@H](C)/C=C/C=C/C=C/1C` [compound 40]: the “KiNativ Kinase Panel Data” value is reported as -40.3 in the series with Wnk1, Wnk2, Wnk3 and -42.0 with ROCK1, ROCK2.
Take `CO[C@H]1C[C@@H]2CC[C@@H](C)[C@@](O)(O2)C(=O)C(=O)N2CCCC[C@H]2C(=O)O[C@H]([C@H](C)C[C@@H]2CC[C@@H](OC(=O)NCCOCCOCCOCCOCCOCCOCCOCCOCCC(=O)N3CCc4cc(Cn5nc(-c6ccc7oc(N)nc7c6)c6c(N)ncnc65)ccc4C3)[C@H](OC)C2)C[C@@H](O)[C@H](C)/C=C(\C)[C@@H](O)[C@@H](OC)C(=O)[C@H](C)C[C@H](C)/C=C/C=C/C=C/1C` [compound 38]: the inhibition (commonly the change of the read-out against control, counted positive when it falls) at 10 µM on hERG potassium channel is -1.2%; in series [1], -8.5%; in series [2], -14.3%; at acetylcholinesterase (h), -15.4%; on Lck kinase (h), 11.3%; in [3], -9.4%. The inhibition at 10 µM in series [5] was -51.3%; in series [6], -4.6%; in series [7], 5.5%; in series [8], -2.1%; in [9], 12.2%; in [10], -1.1%. Also, the inhibition at 10 µM in series [11] is -3%; in series [12] it was -26.1%; in series [13], 10.3%; in series [14] it was -14.5%; in series [15], 11.6%; in series [16] it was 0.6%. In series [4], the “% Inhibition of Control Values” is 13.7%. Also, in [17], the 50% inhibitory concentration (IC50) (usually the concentration that gives 50% inhibition) amounted to 19 nM.
